Laboratory results from patent US10030006B2, “Coumarin based Hsp90 inhibitors with urea and ether substituents” (University of Kansas, priority 2013, dated 2018).
Where two headings read alike, the source gives them in different places.

What was measured:
Assay type in all cases: cell-based
[1] = test system: A-549; experiment: Anti-proliferation assay, A-549
Outline: (§1)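 MTS/PMS viability readout after 72 h compound exposure, with 1% DMSO-treated wells set as 100% proliferation. Cells at 2000/well, attached overnight before dosing; IC50 fitted from separate triplicate runs.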

[2] = test system: HCT-116; experiment: Anti-proliferation assay, HCT-116
Outline: as §1

[3] = test system: MDAMB231; experiment: Anti-proliferation assay, MDAMB231; settings: Tri-Neg
Outline: as §1

[4] = test system: PC-3; experiment: Anti-proliferation assay, PC-3; settings: Prostate Cancer
Outline: as §1

[5] = test system: MCF-7 (estrogen receptor positive breast cancer cells); experiment: Anti-proliferation assay (MTS/PMS, 72 h), MCF-7
[6] = test system: SKBr3 (estrogen receptor negative, Her2 over-expressing breast cancer cells); experiment: Anti-proliferation assay (MTS/PMS, 72 h), SKBr3
[7] = test system: BCPAP; experiment: Anti-proliferation assay, BCPAP; settings: Thyroid
Method: (§2) Cells were maintained in a 1:1 mixture of Advanced DMEM/F12 (Gibco) supplemented with non-essential amino acids, L-glutamine (2 mM), streptomycin (500 μg/mL), penicillin (100 units/mL), and 10% FBS. Cells were grown to confluence in a humidified atmosphere (37° C., 5% CO2), seeded (2000/well, 100 μL) in 96-well plates, and allowed to attach overnight. Compound at varying concentrations in DMSO (1% DMSO final concentration) was added, and cells were returned to the incubator for 72 h. At 72 h, the number of viable cells was determined using an MTS/PMS cell proliferation kit (Promega) per the manufacturer's instructions. Cells incubated in 1% DMSO were used at 100% proliferation, and values were adjusted accordingly. IC50 values were calculated from separate experiments performed in triplicate using GraphPad Prism.

[8] = test system: MRC5; experiment: Anti-proliferation assay, MRC5 (normal); settings: Homo sapiens, MRC5, Table 6, substituted phenyl ureas
Outline: as §1

[9] = test system: JMAR; experiment: Anti-proliferation assay, JMAR; settings: HSNCC
Outline: as §1

[10] = test system: DRO81-1; experiment: Anti-proliferation assay, DRO81-1; settings: Thyroid
Outline: as §1

[11] = test system: MDA1986; experiment: Anti-proliferation assay, MDA1986; settings: HSNCC
Outline: as §1

[12] = test system: HMLE; experiment: Anti-proliferation assay, HMLE (normal); settings: HMLE, Table 6, substituted phenyl ureas
Outline: as §1

[13] = test system: SKBr3 and MCF-7 cell lines; experiment: Anti-proliferative activity against both breast cancer cell lines (results in words); settings: for anti-proliferative activity (in words): SKBr3 and MCF-7, Tables 1-5
Method: as §2
The anti-proliferative activity of these compounds is evaluated against two breast cancer cell lines, SKBr3 (estrogen receptor negative, Her2 over-expressing breast cancer cells) and MCF-7 (estrogen receptor positive breast cancer cells).

[14] = Table 9, non-aryl ureas, Breast Cancer, read-out: IC50 MCF-3
[15] = Table 9, non-aryl ureas, Breast Cancer, read-out: IC50 SKBr3
[16] = Homo sapiens, MCF7, Table 1, modified benzamide coumarin derivatives, read-out: MCF-7
[17] = Homo sapiens, SK-BR-3, Table 1, modified benzamide coumarin derivatives, read-out: SKBr3

Structure (SMILES) | IC50 ([1]; Table 9, non-aryl ureas) [µM] | IC50 ([2]; Table 9, non-aryl ureas) [µM] | IC50 ([3]; Table 9, non-aryl ureas) [µM] | IC50 ([4]; Table 9, non-aryl ureas) [µM] | IC50 ([7]; Table 9, non-aryl ureas) [µM] | IC50 ([9]; Table 9, non-aryl ureas) [µM] | IC50 ([10]; Table 9, non-aryl ureas) [µM] | IC50 ([11]; Table 9, non-aryl ureas) [µM] | anti-proliferative activity (in words) [13] | further results
COc1cc(NC(=O)Nc2cc3ccc(OC4CCN(C)CC4)c(C)c3oc2=O)cc(OC)c1OC [3,4,5-trimethoxyl, 1-(8-methyl-7-((1-methylpiperidin-4-yl)oxy)-2-oxo-2H-chromen-3-yl)-3-(3,4,5-trimethoxyphenyl)urea] | – | – | – | – | – | – | – | – | – | IC50 ([1]; Homo sapiens, A549, Table 6, substituted phenyl ureas): 13 µM; IC50 ([2]; Homo sapiens, HCT-116, Table 6, substituted phenyl ureas): 209 µM; IC50 ([3]; Homo sapiens, MDA-MB-231, Table 6, substituted phenyl ureas): 2.9 µM; IC50 ([4]; Homo sapiens, PC-3, Table 6, substituted phenyl ureas): 4.5 µM; IC50 ([5]; Homo sapiens, MCF7, Table 6, substituted phenyl ureas, Breast Cancer, read-out: IC50 MCF-3): 1.3 µM; IC50 ([6]; Homo sapiens, SK-BR-3, Table 6, substituted phenyl ureas, Breast Cancer, read-out: IC50 SKBr3): 4.26 µM; IC50 ([7]; Homo sapiens, BCPAP, Table 6, substituted phenyl ureas): 1.32 µM; IC50 [8]: > 25 µM; IC50 ([9]; JMAR, Table 6, substituted phenyl ureas): 1.7 µM; IC50 ([10]; Table 6, substituted phenyl ureas): 14.7 µM; IC50 ([11]; MDA1986, Table 6, substituted phenyl ureas): 9.1 µM; IC50 [12]: > 25 µM
Cc1c(OC2CCN(C)CC2)ccc2cc(NC(=O)NC(C)(C)C)c(=O)oc12 [drawing 157] | 4.85 ± 0.29 | 12.1 ± 0.61 | 3.8 | 4.54 ± 0.46 | 2.57 | 2.1 | > 25 | 21.5 | – | IC50 [5, 14]: 1.77 ± 0.26 µM; IC50 [6, 15]: 3.96 ± 0.14 µM
Cc1c(OC2CCN(C)CC2)ccc2cc(NC(=O)N(C)Cc3ccccc3)c(=O)oc12 [drawing 160] | 138 | 183 | > 25 | 28.7 ± 24.6 | 0.0084 | 7.5 | 19.5 | 13.4 | – | –
Cc1c(OC2CCN(C)CC2)ccc2cc(NC(=O)NC(c3ccccc3)c3ccccc3)c(=O)oc12 [drawing 162] | 0.87 ± 0.21 | 0.96 ± 0.16 | 4.3 | 1.12 ± 0.05 | 5.76 | 5.9 | 1.3 | 7.1 | – | IC50 [5, 14]: 0.54 ± 0.01 µM; IC50 [6, 15]: 0.49 ± 0.07 µM
CC(=O)Oc1ccc(C(=O)Nc2cc3ccc(OC4CCN(C)CC4)c(C)c3oc2=O)cc1Cl [Compound 21e, 2-chloro-4-(8-methyl-7-(1-methylpiperidin-4-yloxy)-2-oxo-2H-chromen-3-ylcarbamoyl)phenyl acetate] | – | – | – | – | – | – | – | – | diminished activity | IC50 [5, 16]: 1.61 ± 0.16 µM; IC50 [6, 17]: 3.5 ± 0.01 µM
COc1cccc(-c2cc(C(=O)Nc3cc4ccc(OC5CCN(C)CC5)c(C)c4oc3=O)ccc2OC(C)=O)c1 [Compound 32a, 3′-methoxy-5-(8-methyl-7-(1-methylpiperidin-4-yloxy)-2-oxo-2H-chromen-3-ylcarbamoyl)biphenyl-2-yl acetate] | – | – | – | – | – | – | – | – | maintains inhibitory activity | IC50 ([5]; Homo sapiens, MCF7, Table 2, modified benzamide and biphenylamide derivatives (in μM), read-out: MCF-7): 0.91 µM; IC50 ([6]; Homo sapiens, SK-BR-3, Table 2, modified benzamide and biphenylamide derivatives (in μM), read-out: SKBr3): 0.92 ± 0.06 µM
Cc1c(OC2CCN(C)CC2)ccc2cc(NC(=O)N(Cc3ccccc3)Cc3ccccc3)c(=O)oc12 [drawing 161] | 3.57 ± 0.55 | 5.95 ± 2.92 | 2.8 | 1.27 ± 0.09 | 1.81 | 0.7 | 1.9 | 3.65 | – | IC50 [5, 14]: 3.36 ± 0.16 µM; IC50 [6, 15]: 1.21 ± 0.02 µM
COC(=O)CNCCCOc1ccc2cc(NC(=O)c3ccc(O)c(CC=C(C)C)c3)c(=O)oc2c1C [Compound 68l] | – | – | – | – | – | – | – | – | decreased anti-proliferative activity | IC50 ([5]; Table 4, alkylamino analogues, read-out: MCF-7): 2.82 ± 0.27 µM; IC50 ([6]; Table 4, alkylamino analogues, read-out: SKBr3): 1.06 ± 0.11 µM
Cc1c(OC2CCN(C)CC2)ccc2cc(NC(=O)NCc3ccccc3)c(=O)oc12 [drawing 159] | 0.28 ± 0.03 | 0.66 ± 0.15 | 7.9 | 0.87 ± 0.33 | 0.045 | > 25 | 14.6 | 14.4 | – | –
CC(=O)Oc1ccc(C(=O)Nc2cc3ccc(OC4CCN(C)CC4)c(C)c3oc2=O)cc1 [Compound 21b, 4-(8-methyl-7-(1-methylpiperidin-4-yloxy)-2-oxo-2H-chromen-3-ylcarbamoyl)phenyl acetate] | – | – | – | – | – | – | – | – | decreased anti-proliferative activities | IC50 [5, 16]: 1.62 ± 0.04 µM; IC50 [6, 17]: 1.67 ± 0.2 µM
Cc1c(OC2CCN(C)CC2)ccc2cc(NC(=O)c3ccc(O)c(CCC(C)C)c3)c(=O)oc12 [Compound 19, 4-hydroxy-3-isopentyl-N-(8-methyl-7-(1-methylpiperidin-4-yloxy)-2-oxo-2H-chromen-3-yl)benzamide] | – | – | – | – | – | – | – | – | no effect on inhibitory activity | IC50 [5, 16]: 1.25 ± 0.39 µM; IC50 [6, 17]: 0.6 ± 0.01 µM
CCCN(CCC)CCCOc1ccc2cc(NC(=O)c3ccc(O)c(CC=C(C)C)c3)c(=O)oc2c1C [Compound 68e, N-(7-(3-(dipropylamino)propoxy)-8-methyl-2-oxo-2H-chromen-3-yl)-4-hydroxy-3-(3-methylbut-2-en-1-yl)benzamide] | – | – | – | – | – | – | – | – | did not show any activity at the highest concentration | IC50 ([5]; Homo sapiens, MCF7, Table 4, alkylamino analogues, read-out: MCF-7): > 50 µM; IC50 ([6]; Homo sapiens, SK-BR-3, Table 4, alkylamino analogues, read-out: SKBr3): > 50 µM
Cc1c(OC2CCN(C)CC2)ccc2cc(NC(=O)c3ccc(O)c(Cl)c3)c(=O)oc12 [Compound 22e, 3-chloro-4-hydroxy-N-(8-methyl-7-(1-methylpiperidin-4-yloxy)-2-oxo-2H-chromen-3-yl)benzamide] | – | – | – | – | – | – | – | – | diminished activity | IC50 [5, 16]: 1.48 ± 0.14 µM; IC50 [6, 17]: 2.3 ± 0.57 µM
Cc1c(OC2CCN(C)CC2)ccc2cc(NC(=O)Nc3ccccc3)c(=O)oc12 [H, 1-(8-methyl-7-((1-methylpiperidin-4-yl)oxy)-2-oxo-2H-chromen-3-yl)-3-phenylurea] | – | – | – | – | – | – | – | – | – | IC50 ([5]; Homo sapiens, MCF7, amide versus urea linkage, read-out: IC50 for MCF-3): 0.89 µM; IC50 ([6]; Homo sapiens, SK-BR-3, amide versus urea linkage, read-out: IC50 for SKBr3): 0.77 µM; increase in inhibition, urea versus amide linkage ([13]; text b189, two breast cancer cell lines): ~15 fold
CC(C)=CCc1cc(C(=O)Nc2cc3ccc(OCCCN(C)c4ccccc4)c(C)c3oc2=O)ccc1O [Compound 70d] | – | – | – | – | – | – | – | – | inactive | IC50 ([5]; Table 5, alkylether derivatives with cyclic N-substitutions, read-out: MCF-7): > 50 µM; IC50 ([6]; Table 5, alkylether derivatives with cyclic N-substitutions, read-out: SKBr3): > 50 µM
Cc1c(OC2CCN(C)CC2)ccc2cc(NC(=O)c3ccc(O)cc3)c(=O)oc12 [Compound 22b, 4-hydroxy-N-(8-methyl-7-(1-methylpiperidin-4-yloxy)-2-oxo-2H-chromen-3-yl)benzamide] | – | – | – | – | – | – | – | – | decreased anti-proliferative activities | IC50 [5, 16]: 1.43 ± 0.08 µM; IC50 [6, 17]: 0.84 ± 0.18 µM
Cc1c(OC2CCN(C)CC2)ccc2cc(NC(=O)N3CCN(C)CC3)c(=O)oc12 [drawing 158] | 18.3 ± 12 | > 100 | > 25 | 115 | > 25 | > 25 | > 25 | > 25 | – | IC50 [5, 14]: 32.1 ± 4.78 µM; IC50 [6, 15]: > 50 µM
